In ChEMBL document CHEMBL4145665, “Structure-Activity Relationship of Novel and Selective Biaryl-Chroman GPR40 AgoPAMs” (ACS Med Chem Lett, 2018):

Assays:
[1] = biological target: Free fatty acid receptor 1 (Homo sapiens, UniProt O14842); test: Agonist activity at recombinant human GPR40 expressed in HEK293 cells assessed as increase in IP1 accumulation measured after 60 mins by HTRF assay; assay type: functional, cell-based
[2] = biological target: Free fatty acid receptor 1 (Rattus norvegicus) (UniProt Q8K3T4); test: Agonist activity at recombinant rat GPR40 expressed in CHOK1 cells assessed as increase in IP1 accumulation measured after 60 mins by HTRF assay relative to AM-1638; assay type: functional, cell-based
Rattus norvegicus [3] = test: Antidiabetic activity in po dosed Goto Kakizaki rats assessed as reduction in blood glucose excursion pretreated for 1 hr followed by dextrose challenge measured after 20 to 60 mins by OGTT method; assay type: functional; conditions: read-out: MED
Rattus norvegicus [4] = test: Antidiabetic activity in po dosed Goto Kakizaki rats assessed as plasma concentration required for reduction in blood glucose excursion at MED pretreated for 1 hr followed by dextrose challenge measured 3 hrs post dose by OGTT; assay type: functional, organism-based
Rattus norvegicus [5] = test: Antidiabetic activity in Goto Kakizaki rats assessed as inhibition of blood glucose AUC at 1 mg/kg, po pretreated for 1 hr followed by dextrose challenge measured after 20 to 60 mins by OGTT method relative to control; assay type: functional
Rattus norvegicus [6] = test: Antidiabetic activity in Goto Kakizaki rats assessed as inhibition of blood glucose AUC at 3 mg/kg, po pretreated for 1 hr followed by dextrose challenge measured after 20 to 60 mins by OGTT method relative to control; assay type: functional
Rattus norvegicus [7] = test: Antidiabetic activity in Goto Kakizaki rats assessed as plasma concentration required for reduction in blood glucose excursion at 10 mg/kg, po pretreated for 1 hr followed by dextrose challenge measured 3 hrs post dose by OGTT; assay type: functional, organism-based
Rattus norvegicus [8] = test: Antidiabetic activity in Goto Kakizaki rats assessed as plasma concentration required for reduction in blood glucose excursion at 30 mg/kg, po pretreated for 1 hr followed by dextrose challenge measured 3 hrs post dose by OGTT; assay type: functional, organism-based
Mus musculus = test: Antidiabetic activity in po dosed C57BL/6 mouse assessed as increase in GLP-1 secretion measured after 1 hr; assay type: functional, organism-based
[9] = Clearance in Beagle dog at 1 mg/kg, iv or 2 mg/kg, po administered as single dose; assay type: ADME, organism-based, Canis lupus familiaris; conditions: in vivo
[10] = Volume of distribution at steady state in Beagle dog at 1 mg/kg, iv or 2 mg/kg, po administered as single dose; assay type: ADME, organism-based, Canis lupus familiaris; conditions: in vivo, read-out: Vdss
[11] = Oral bioavailability in Beagle dog at 2 mg/kg administered as single dose; assay type: ADME, organism-based, Canis lupus familiaris; conditions: in vivo
[12] = Intrinsic clearance in Wistar-Han rat hepatocytes; assay type: ADME, cell-based, Hepatocyte; conditions: read-out: CLH
[13] = Intrinsic clearance in rhesus monkey hepatocytes; assay type: ADME, cell-based, Macaca mulatta, Hepatocyte; conditions: read-out: CLH
Rattus norvegicus [14] = test: Toxicity in Wistar rat assessed as decrease in body weight at 200 mg/kg administered once daily for 4 days relative to control; assay type: organism-based; design: scale not given: the % may be the effect or the level left; conditions: in vivo, 96 h
[15] = Cmax in Wistar rat at 750 mg/kg administered once daily for 4 days; assay type: ADME, organism-based; design: dose 750 mg/kg; conditions: in vivo
[16] = Tmax in Wistar rat at 750 mg/kg administered once daily for 4 days; assay type: ADME, organism-based; conditions: in vivo
Rattus norvegicus [17] = test: Toxicity in Wistar rat assessed as change in cardiac troponin1 levels at 200 to 750 mg/kg administered once daily for 4 days; assay type: organism-based; conditions: in vivo, 96 h
Rattus norvegicus [18] = test: Toxicity in Wistar rat assessed as gross findings at 200 to 750 mg/kg administered once daily for 4 days; assay type: organism-based; conditions: in vivo, 96 h

Free fatty acid receptor 1, sequence (O14842 whole entry): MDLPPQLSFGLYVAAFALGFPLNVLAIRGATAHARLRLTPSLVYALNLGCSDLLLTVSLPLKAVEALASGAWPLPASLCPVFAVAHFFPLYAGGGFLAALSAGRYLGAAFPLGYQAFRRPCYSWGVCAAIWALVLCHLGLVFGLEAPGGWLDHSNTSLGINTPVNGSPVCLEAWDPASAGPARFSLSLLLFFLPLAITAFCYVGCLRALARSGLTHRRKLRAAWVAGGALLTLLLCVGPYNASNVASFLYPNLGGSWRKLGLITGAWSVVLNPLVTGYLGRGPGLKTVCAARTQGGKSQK
Free fatty acid receptor 1 (Rattus norvegicus), sequence (Q8K3T4 whole entry): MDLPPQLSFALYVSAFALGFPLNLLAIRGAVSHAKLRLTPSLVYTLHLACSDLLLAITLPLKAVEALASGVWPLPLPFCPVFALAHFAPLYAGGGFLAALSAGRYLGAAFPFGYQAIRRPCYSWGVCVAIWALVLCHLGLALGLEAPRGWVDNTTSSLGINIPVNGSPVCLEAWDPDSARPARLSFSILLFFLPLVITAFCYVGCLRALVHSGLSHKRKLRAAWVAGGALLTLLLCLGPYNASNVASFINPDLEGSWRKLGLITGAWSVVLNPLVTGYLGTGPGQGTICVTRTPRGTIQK

COc1cc(-c2ccc([C@@H]3CCc4ccc([C@H](C5CC5)[C@H](C)C(=O)[O-])cc4O3)c(F)c2)ccn1.[Na+]
EC50 [1]: 0.8 nM
max activation [2]: > 370%
minimal effective dose (Rattus norvegicus [3]): 10 mg/kg
Cp (Rattus norvegicus [4]): 4.9 µM
inhibition in vivo at 1 mg/kg (Rattus norvegicus [5]): 95%
inhibition in vivo at 3 mg/kg (Rattus norvegicus [6]): 108%
Cp (Rattus norvegicus [7]): 4.9 µM
Cp (Rattus norvegicus [8]): 7.7 µM
Activity (Mus musculus): Dose-dependent effect
clearance [9]: 1.6 mL/min/kg
Vd [10]: 0.45 L/kg
bioavailability [11]: 79%
CLint scaled [12]: 241 mL/min/kg
CLint scaled [13]: 102 mL/min/kg
Activity (Rattus norvegicus [14]): 72%
Cmax [15]: 545 µM
Tmax [16]: 1 to 2 h
Activity (Rattus norvegicus [17]): Non-Toxic
Activity (Rattus norvegicus [18]): Non-Toxic
